Laboratory results from the supplement of paper PMC11061612.

What was measured:
EW-1 (Ewing's Sarcoma) = experiment: combination Emax (second highest fraction inhibited in the dose matrix, 72 h); higher = more inhibition; extreme values may be limits of the assay
Method in brief: (§1)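 After 24 hours at 37°C and 5% CO2 in 1536-well plates, cells in DMEM/F12 or RPMI plus 10% FBS received two-drug dose matrices for 72 hours. Viability came from CellTiter-Glo 2.0 luminescence and was scaled as inhibition, anchored at 0 by vehicle wells and at 1 by blank wells. Combination Emax is taken as the second-highest inhibition in the matrix, and Bliss excess as the observed combination effect less EA + EB − EA·EB, with EA and EB the single-agent effects.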

[1] = tested on: SK-LU-1 (Lung Adenocarcinoma); experiment: as above
Method in brief: as §1

[2] = tested on: KGN (Other Solid Carcinomas); experiment: as above
Method in brief: as §1

[3] = tested on: NCI-H2122 (Lung Adenocarcinoma); experiment: as above
Method in brief: as §1

[4] = tested on: SW872 (Other Solid Carcinomas); experiment: as above
Method in brief: as §1

[5] = tested on: KOPN-8 (B-Lymphoblastic Leukemia); experiment: as above
Method in brief: as §1

[6] = tested on: OACM5-1 (Esophageal Adenocarcinoma); experiment: as above
Method in brief: as §1

[7] = tested on: A4-Fuk (B-Lymphoblastic Leukemia); experiment: as above
Method in brief: as §1

COLO-679 (Melanoma) = experiment: as above
Method in brief: as §1

[8] = tested on: MV-4-11 (Acute Myeloid Leukemia); experiment: as above
Method in brief: as §1

[9] = tested on: SNU-387 (Hepatocellular Carcinoma); experiment: as above
Method in brief: as §1

[10] = tested on: MDA-MB-453 (Breast Carcinoma); experiment: as above
Method in brief: as §1

[11] = tested on: HAL-01 (B-Lymphoblastic Leukemia); experiment: as above
Method in brief: as §1

[12] = tested on: ME-180 (Cervical Carcinoma); experiment: as above
Method in brief: as §1

[13] = tested on: NCI-H1838 (Lung Adenocarcinoma); experiment: as above
Method in brief: as §1

[14] = tested on: NCI-H1092 (Small Cell Lung Carcinoma); experiment: as above
Method in brief: as §1

[15] = tested on: MOLT-4 (T-Lymphoblastic Leukemia); experiment: as above
Method in brief: as §1

[16] = tested on: HCC1937 (Breast Carcinoma); experiment: as above
Method in brief: as §1

[17] = tested on: EJM (Plasma Cell Myeloma); experiment: Bliss excess, mean over the matrix (fraction); higher = more synergy
Method in brief: as §1

[18] = tested on: NCI-H2122 (Lung Adenocarcinoma); experiment: as above
Method in brief: as §1
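Throughout, for Bliss excess, mean over the matrix: after 72 h of two-drug dosing.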

COc1nnc2ccc(N3CCC(c4ccc(OCCN5CCN(C)C(=O)[C@H]5C)cc4)CC3)nn12 [AZD5153] + Cc1c2c(nn1C)CSCc1cc(n(C)n1)CSc1cc(c3ccccc3c1)OCCCc1c(C(=O)O)n(C)c3c-2c(Cl)ccc13 [AZD5991] (first compound max 1 µM, 7x7, partner max 1 µM)
combination Emax (EW-1 (Ewing's Sarcoma)): 0.751
combination Emax [1]: 0.388
combination Emax [2]: 0.742
combination Emax [3]: 0.913
combination Emax [4]: 0.697
combination Emax [5]: 1
combination Emax [6]: 0.952
combination Emax [7]: 1
combination Emax (COLO-679 (Melanoma)): 0.874
combination Emax [8]: 1
combination Emax [9]: 0.614
combination Emax [10]: 0.953
combination Emax [11]: 0.873
combination Emax [12]: 0.438
combination Emax [13]: 0.731
combination Emax [14]: 0.865
combination Emax [15]: 0.95
combination Emax [16]: 0.507
Bliss excess [17]: 0.0564
Bliss excess [18]: -0.0402

COc1nnc2ccc(N3CCC(c4ccc(OCCN5CCN(C)C(=O)[C@H]5C)cc4)CC3)nn12 [AZD5153] + Cn1cnc2c(F)c(Nc3ccc(Br)cc3Cl)c(C(=O)NOCCO)cc21 [Selumetinib] (first compound max 1 µM, 7x7, partner max 10 µM)
combination Emax (EW-1 (Ewing's Sarcoma)): 0.618
combination Emax [1]: 0.46
combination Emax [2]: 0.729
combination Emax [3]: 1
combination Emax [4]: 0.784
combination Emax [5]: 1
combination Emax [6]: 0.663
combination Emax [7]: 0.934
combination Emax (COLO-679 (Melanoma)): 0.884
combination Emax [8]: 1
combination Emax [9]: 0.514
combination Emax [10]: 0.614
combination Emax [11]: 0.849
combination Emax [12]: 0.592
combination Emax [13]: 0.394
combination Emax [14]: 0.192
combination Emax [15]: 0.162
combination Emax [16]: 0.396
Bliss excess [17]: 0.0207
Bliss excess [18]: 0.0659

Cc1c2c(nn1C)CSCc1cc(n(C)n1)CSc1cc(c3ccccc3c1)OCCCc1c(C(=O)O)n(C)c3c-2c(Cl)ccc13 [AZD5991] + C1CN(CCC1(C(=O)N[C@@H](CCO)C2=CC=C(C=C2)Cl)N)C3=NC=NC4=C3C=CN4 [Capivasertib] (first compound max 1 µM, 7x7, partner max 3 µM)
combination Emax (EW-1 (Ewing's Sarcoma)): 0.415
combination Emax [1]: 0.303
combination Emax [2]: 0.329
combination Emax [3]: 0.608
combination Emax [4]: 0.282
combination Emax [5]: 0.901
combination Emax [6]: 0.969
combination Emax [7]: 1
combination Emax (COLO-679 (Melanoma)): 0.19
combination Emax [8]: 1
combination Emax [9]: 0.345
combination Emax [10]: 0.61
combination Emax [11]: 0.527
combination Emax [12]: 0.517
combination Emax [13]: 0.306
combination Emax [14]: 0.534
combination Emax [15]: 0.92
combination Emax [16]: 0.456
Bliss excess [17]: 0.0504
Bliss excess [18]: 0.0061

Cc1c2c(nn1C)CSCc1cc(n(C)n1)CSc1cc(c3ccccc3c1)OCCCc1c(C(=O)O)n(C)c3c-2c(Cl)ccc13 [AZD5991] + CC1(C)CCC(CN2CCN(c3ccc(C(=O)NS(=O)(=O)c4ccc(NCC5CCOCC5)c([N+](=O)[O-])c4)c(Oc4cnc5[nH]ccc5c4)c3)CC2)=C(c2ccc(Cl)cc2)C1 [Venetoclax] (first compound max 1 µM, 7x7, partner max 1 µM)
combination Emax (EW-1 (Ewing's Sarcoma)): 0.684
combination Emax [1]: 0.258
combination Emax [2]: 0.263
combination Emax [3]: 0.823
combination Emax [4]: 0.312
combination Emax [5]: 0.936
combination Emax [6]: 0.917
combination Emax [7]: 1
combination Emax (COLO-679 (Melanoma)): 0.388
combination Emax [8]: 1
combination Emax [9]: 0.454
combination Emax [10]: 0.346
combination Emax [11]: 0.984
combination Emax [12]: 0.286
combination Emax [13]: 0.306
combination Emax [14]: 0.989
combination Emax [15]: 0.857
combination Emax [16]: 0.316
Bliss excess [17]: 0.0164
Bliss excess [18]: 0.0016

Cc1c2c(nn1C)CSCc1cc(n(C)n1)CSc1cc(c3ccccc3c1)OCCCc1c(C(=O)O)n(C)c3c-2c(Cl)ccc13 [AZD5991] + CCN(CCO)CCCOc1ccc2c(Nc3cc(CC(=O)Nc4cccc(F)c4)[nH]n3)ncnc2c1 [AZD2811] (first compound max 1 µM, 7x7, partner max 1 µM)
combination Emax (EW-1 (Ewing's Sarcoma)): 0.482
combination Emax [1]: 0.41
combination Emax [2]: 0.574
combination Emax [3]: 0.883
combination Emax [4]: 0.249
combination Emax [5]: 0.983
combination Emax [6]: 0.946
combination Emax [7]: 1
combination Emax (COLO-679 (Melanoma)): 0.42
combination Emax [8]: 1
combination Emax [9]: 0.458
combination Emax [10]: 0.75
combination Emax [11]: 0.468
combination Emax [12]: 0.343
combination Emax [13]: 0.447
combination Emax [14]: 0.626
combination Emax [15]: 0.941
combination Emax [16]: 0.4
Bliss excess [17]: 0.0504
Bliss excess [18]: 0.0065

Cc1c2c(nn1C)CSCc1cc(n(C)n1)CSc1cc(c3ccccc3c1)OCCCc1c(C(=O)O)n(C)c3c-2c(Cl)ccc13 [AZD5991] + CN(C)CCCOc1ccc(-c2ccc3ncc4c(c3c2)n(C2CCOCC2)c(=O)n4C)cn1 [AZD0156] (first compound max 1 µM, 7x7, partner max 1 µM)
combination Emax (EW-1 (Ewing's Sarcoma)): 0.375
combination Emax [1]: 0.3
combination Emax [2]: 0.425
combination Emax [3]: 0.656
combination Emax [4]: 0.226
combination Emax [5]: 0.963
combination Emax [6]: 0.928
combination Emax [7]: 1
combination Emax (COLO-679 (Melanoma)): 0.243
combination Emax [8]: 1
combination Emax [9]: 0.376
combination Emax [10]: 0.298
combination Emax [11]: 0.686
combination Emax [12]: 0.278
combination Emax [13]: 0.464
combination Emax [14]: 0.562
combination Emax [15]: 0.304
combination Emax [16]: 0.333
Bliss excess [17]: 0.0241
Bliss excess [18]: 0.0237
